Assay results from patent US20040034003A1, “7-Hydroxy-16alpha-fluoro-5-androsten-17-ones and 7-hydroxy-16alpha-fluoro-5-androstan-17-ones and derivatives thereof” (priority 2002, published 2004).
Values joined by “and” are separate entries in the source; they are usually repeats but may differ in a detail not shown here. Equal values may be shown once.

Test system: TPA-Induced DNA Synthesis in Mouse Epidermis
Assay: TPA-induced DNA synthesis in mouse epidermis: [3H]thymidine incorporation and epidermal DNA content of a 2x2 cm2 skin section
Format: in vivo
Conditions: for μg DNA / corrected cpm / cpm/μg DNA / cpm: individual mouse
Protocol: Epidermal hypeplasia is determined by measuring the stimulation in [^3H] thymidine incorporation as well as epidermal DNA content of a 2×2 cm^2 section of skin twenty hours after TPA application.
In prior experiments, 16α-fluoro-5-androsten-17-one was administered in escalating doses by the oral subcutaneous, intraperitoneal, and buccal routes of administration, and the effect on TPA-stimulated epidermal [^3H] thymidine incorporation and epidermal DNA content was determined.
In this experiment, the effect of treating mice subcutaneously (s.c.) with suspensions of 7α-hydroxy-16α-flouro-5-androsten-17-one and suspensions of 16aflouro-5-androsten-17-one were investigated.
Variousl6α-flouro-5-androsten-17 one suspensions (Q) were prepared. The vehicle was 95% saline (0.9% NaCl) and 5% Emulphor. For the 5 mg/kg s.c. suspension, 25.3 mg was suspended in 10 mL of Emulphor-saline. The other suspensions were made by diluting the 5 mg/kg suspension. For the 2.5 mg/kg suspension, 1 mL of 5mg/kg s.c. suspension was diluted to a final volume of 2mL, for the 1 m/kg suspension 1 mL of the 5 mg/kg suspension was made to a total of 5 mL, while for the 0.125 mg/kg suspension, 0.5 mL of the 5 mg/kg suspension was made to a final volume of 20 mL. Magnetic stir bars were added to the suspensions which were kept on a magnetic stirrer.
7α-hydroxy-16α-flouro-5-androsten-17-one was prepared as described hereinabove. For the 5 mg/kg s.c. suspension, 16.3 mg was suspended in 6.5 mL of Emulphor-saline. The other suspensions were made by diluting the 5 mg/kg suspension. For the 2.5 mg/kg, 1 mL of 5 mg/kg suspension was diluted to a final volume of 2 mL, for the 1 mg/kg suspension 1 mL of the 5 mg/kg suspension was made to total 5 mL, while for the 0.125 mg/kg suspension, 0.5 mL of the 5 mg/kg suspension was made up to final volume of 20 mL. Magnetic stir bars were added to the suspensions and the suspensions were kept on a magnetic stirrer.
Female CD-1 mice were obtained from Charles River Laboratories, Wilmington, Mass. at 44-46 days of age. The mice were housed two to three per cage in plastic shoebox cages on Alphacel bedding with 12 hours of alternating light and dark in the CAF Animal Facility, 6th floor, Pharmacy Building. The mice had ad libitum access-to Purina 5015 chow and acidified tap water (pH≦2.6). The mice were allowed to acclimate to the facility for one week prior to use in an experiment. Three days after obtaining the mice, the mice were shaved and weighed. Only those mice showing no hair regrowth were used in the experiment.
Four days after the mice were shaved, they were treated as follows:
The mice were sacrificed 20 hours after treatment by an overdose of CO2. Twenty minutes prior to sacrifice, the mice were injected with 60 μCi of [^3H]thymidine (Amersham Batch 297). The mice were treated with a depilatory to remove any residual hair. A 2×2 cm^2 piece of skin was excised, placed in ice water for 30 seconds, then in 55° C. water for 30 seconds, then ice water again for 30 seconds. The epidermis was scrapped off using a scalpel and the scrapings were placed into ice cold 0.4N TCA (trichloroacetic acid). The scrapings were homogenized using a Tekmar Tissumizer (80% power for 30 seconds). The homogenates were centrifuged for 20 minutes at 3,000×g. The precipitates were washed 3× with 0.2N TCA, and 2× with absolute ethanol. The DNA in each sample was hydrolyzed with 0.5N TCA for 30 minuts at 90°. The tubes were centrifuged for 20 minutes at 3000×g. A 0.2 mL aliquot of each hydrolysate was counted in a LKB Rackbeta scintillation counter using Scintiverse II BD as the counting medium. DNA content was determined by the Burton diphenylamine assay.
Various suspensions were prepared of 16α-fluoro-5-androsten-17-one as follows. The vehicle was 95% saline (0.9% NaCl) and 5% Emulphor. For the 5 mg/kg s.c. suspension, 27.8 mg was suspended in 11.4 mL of Emulphor-saline. The other suspensions were made by diluting the 5 mg/kg suspension. […]

[1] = Example 4, 0.125 mg/kg s.c. 1 h before topical TPA 2 μg, 20 h, 0.125 mg/kg
[2] = Example 4, 1 mg/kg s.c. 1 h before topical TPA 2 μg, 20 h, 1 mg/kg
[3] = Example 4, 2.5 mg/kg s.c. 1 h before topical TPA 2 μg, 20 h, 2.5 mg/kg
[4] = Example 4, 5 mg/kg s.c. 1 h before topical TPA 2 μg, 20 h
[5] = Example 4, 5 mg/kg s.c. 1 h before topical TPA 2 μg, 20 h, 5 mg/kg
[6] = Example 5, 1 mg/kg s.c. 1 h before topical TPA 2 μg, 20 h, 1 mg/kg
[7] = Example 5, 1.75 mg/kg s.c. 1 h before topical TPA 2 μg, 20 h, 1.75 mg/kg
[8] = Example 5, 2.5 mg/kg s.c. 1 h before topical TPA 2 μg, 20 h, 2.5 mg/kg
[9] = Example 5, 3.75 mg/kg s.c. 1 h before topical TPA 2 μg, 20 h, 3.75 mg/kg
[10] = Example 5, 5 mg/kg s.c. 1 h before topical TPA 2 μg, 20 h, 5 mg/kg

## C[C@]12CCCCC1=C[C@@H](O)[C@@H]1[C@@H]2CC[C@]2(C)C(=O)[C@H](F)C[C@@H]12 [7α-hydroxy-16α-fluoro-5-androsten-17-one, 16α-fluoro-7α-hydroxy-5-androsten-17-one]
Example 4, 0.125 mg/kg s.c. 1 h before topical TPA 2 μg, 20 h, Burton diphenylamine assay, 0.125 mg/kg
  μg DNA: 16.8 µg and 15.4 µg
Example 4, 0.125 mg/kg s.c. 1 h before topical TPA 2 μg, 20 h
  cpm/μg DNA (group average ±): 335.1 ± 64.4 cpm/μg DNA
[1]
  corrected cpm: 6,394.0 cpm and 4,458.0 cpm
  cpm/μg DNA: 380.6 cpm/μg DNA and 289.5 cpm/μg DNA
Example 4, 0.125 mg/kg s.c. 1 h before topical TPA 2 μg, female CD-1 mice, 20 h after treatment, 0.125 mg/kg
  cpm: 6,419.0 cpm and 4,483.0 cpm
Example 4, 1 mg/kg s.c. 1 h before topical TPA 2 μg, 20 h
  cpm/μg DNA (group average ±): 245.5 ± 44.1 cpm/μg DNA
[2]
  corrected cpm: 3,021.0 cpm and 3,623.0 cpm
  cpm: 3,046.0 cpm and 3,648.0 cpm
  cpm/μg DNA: 214.3 cpm/μg DNA and 276.6 cpm/μg DNA
  μg DNA: 14.1 µg and 13.1 µg
Example 4, 2.5 mg/kg s.c. 1 h before topical TPA 2 μg, 20 h
  cpm/μg DNA (group average ±): 350.2 ± 32.5 cpm/μg DNA
[3]
  corrected cpm: 4,478.0 cpm and 3,698.0 cpm
  cpm: 4,503.0 cpm and 3,723.0. cpm
  cpm/μg DNA: 373.2 cpm/μg DNA and 327.3 cpm/μg DNA
  μg DNA: 12.0 µg and 11.3 µg
[4]
  cpm/μg DNA (group average ±): 360.3 ± 9.3 cpm/μg DNA
  μg DNA: 11.9 µg
[5]
  corrected cpm: 4,366.0 cpm and 4,209.0 cpm
  cpm: 4,391.0 cpm and 4,234.0 cpm
  cpm/μg DNA: 366.9 cpm/μg DNA and 353.7 cpm/μg DNA
Example 4, s.c., dose range 0.125-5 mg/kg
  effect on [3H]thymidine incorporation and epidermal DNA content (in words): inhibited [^3H] thymidine incorporation and epidermal DNA content over the dose range with no apparent nadir or over stimulation

## C[C@]12CCCCC1=C[C@H](O)[C@@H]1[C@@H]2CC[C@]2(C)C(=O)[C@H](F)C[C@@H]12 [7β-hydroxy-16α-fluoro-5-androsten-17-one, 16α-fluoro-7β-hydroxy-5-androsten-17-one]
Example 5, 1 mg/kg s.c. 1 h before topical TPA 2 μg, 20 h
  cpm/μg DNA (group average ±): 283.4 ± 35.3 cpm/μg DNA
[6]
  corrected cpm: 4,501.0 cpm and 3,230.0 cpm
  cpm/μg DNA: 308.3 cpm/μg DNA and 258.4 cpm/μg DNA
  μg DNA: 14.6 µg and 12.5 µg
Example 5, 1 mg/kg s.c. 1 h before topical TPA 2 μg, female CD-1 mice, 20 h, 1 mg/kg
  cpm: 4,527.0 cpm and 3,256.0 cpm
Example 5, 1.75 mg/kg s.c. 1 h before topical TPA 2 μg, 20 h
  cpm/μg DNA (group average ±): 156.6 ± 17.0 cpm/μg DNA
[7]
  corrected cpm: 1,445.0 cpm and 1,534.0 cpm
  cpm: 1,471.0 cpm and 1,560.0 cpm
  cpm/μg DNA: 144.5 cpm/μg DNA and 168.6 cpm/μg DNA
  μg DNA: 10.0 µg and 9.1 µg
Example 5, 2.5 mg/kg s.c. 1 h before topical TPA 2 μg, 20 h
  cpm/μg DNA (group average ±): 480.5 ± 117.6 cpm/μg DNA
[8]
  corrected cpm: 3,814.0 cpm and 5,861.0 cpm
  cpm: 3,840.0 cpm and 5,887.0 cpm
  cpm/μg DNA: 397.3 cpm/μg DNA and 563.6 cpm/μg DNA
  μg DNA: 9.6 µg and 10.4 µg
Example 5, 3.75 mg/kg s.c. 1 h before topical TPA 2 μg, 20 h
  cpm/μg DNA (group average ±): 485.4 ± 115.3 cpm/μg DNA
[9]
  corrected cpm: 4,706.0 cpm and 2,585.0 cpm
  cpm: 4,732.0 cpm and 2,611.0 cpm
  cpm/μg DNA: 567.0 cpm/μg DNA and 403.9 cpm/μg DNA
  μg DNA: 8.3 µg and 6.4 µg
Example 5, 5 mg/kg s.c. 1 h before topical TPA 2 μg, 20 h
  cpm/μg DNA (group average ±): 653.7 ± 61.0 cpm/μg DNA
[10]
  corrected cpm: 6,132.0 cpm and 3,908.0 cpm
  cpm: 6,158.0 cpm and 3,934.0 cpm
  cpm/μg DNA: 696.8 cpm/μg DNA and 610.6 cpm/μg DNA
  μg DNA: 8.8 µg and 6.4 µg
Example 5, s.c.
  activity compared with 16α-fluoro-5-androsten-17-one (in words): much more active
  dose producing an overstimulation of [3H]thymidine incorporation: 2.5 mg/kg
